Measured values: US20250262279A1, “DOSE REGIMEN FOR LONG-ACTING GLP1/GLUCAGON RECEPTOR AGONISTS” (Boehringer Ingelheim International GmbH, priority 2021, published 2025)
Read-outs that look alike come from different tables or passages of the source.

Tests used:
[1] = Example 2: plasma pharmacokinetics; assay type: in vivo; conditions: human, sc, read-out: AUC0-168 (gMean)
From the text: In Table 9, only the gMean PK parameters of subjects who followed the planned dose rising scheme are included. Following subcutaneous administration of Compound I, the gMean plasma AUC0-168 and Cmax increased with further weekly or twice weekly dosing.

[2] = Example 3: safety (AEs, laboratory, ECG, vital signs, NASH scores); assay type: in vivo, human
Procedure: • Semaglutide • Dose: 0.25, 0.25, 0.25, 0.25, 0.5, 0.5, 0.5, 0.5, 1.0 mg (weeks 9−16) once weekly • Mode of administration: Solution for injection
Safety endpoints included Columbia-Suicide Severity Rating Scale (C-SSRS) and various electrocardiograms (ECG) assessments. Safety was assessed based on adverse events (AEs), adverse event of special interest (AESIs), clinical laboratory assessments, vital signs, and physical examination. AESIs were pre-specified in the protocol as pancreatitis and hepatic injury.
Analyses of safety were descriptive.

[3] = Example 1 Phase I titration study in obesity/overweight: safety and tolerability; conditions: for Patients withdrawn from up-titration: Ex.1 Part A (6 wk)
From the text: Blinded within dose groups, randomised, placebo-controlled
• Male patients (Part A); male and female patients (Part B) • Age 18 to <70 years • BMI 27 to <40 kg/m^2 • Body weight of at least 70 kg for women and 80 kg for men • Stable body weight, defined as no more than 5% change within 3 months prior to screening
Further criteria of interest: • AEs (including clinically relevant findings from the physical examination and assessment of local tolerability) • Safety laboratory tests • 12-lead ECG • Vital signs (blood pressure, pulse rate) • Continuous ECG (including mean daily heart rate) • Assessment of local tolerability by the investigator • The cumulative number [N (%)] of patients withdrawn from up-titration by up-titration scheme and week
Descriptive statistics were calculated for all endpoints. […] No formal interim analysis was conducted. Data from the completed 6-week cohorts were analysed before database lock for internal decision-making.

SMILES: CC[C@H](C)[C@H](NC(=O)[C@H](Cc1ccccc1)NC(=O)[C@H](CC(=O)O)NC(=O)[C@H](CCCCN)NC(=O)[C@H](C)NC(=O)[C@H](C)NC(=O)[C@H](CCCNC(=N)N)NC(=O)[C@H](CCC(=O)O)NC(=O)[C@H](CC(=O)O)NC(=O)[C@H](CC(C)C)NC(=O)[C@H](Cc1ccc(O)cc1)NC(=O)[C@H](CCCCN)NC(=O)[C@H](CO)NC(=O)[C@H](Cc1ccc(O)cc1)NC(=O)[C@H](CC(=O)O)NC(=O)[C@H](CO)NC(=O)[C@@H](NC(=O)[C@H](Cc1ccccc1)NC(=O)[C@@H](NC(=O)CNC(=O)[C@H](CCC(N)=O)NC(=O)C1(NC(=O)[C@@H](N)Cc2c[nH]cn2)CCC1)[C@@H](C)O)[C@@H](C)O)C(=O)N[C@@H](CCCCNC(=O)CNC(=O)CNC(=O)[C@H](CO)NC(=O)CNC(=O)[C@H](CO)NC(=O)CNC(=O)CC[C@H](NC(=O)CCCCCCCCCCCCCCCCC(=O)O)C(=O)O)C(=O)N[C@@H](Cc1c[nH]c2ccccc12)C(=O)N[C@@H](CC(C)C)C(=O)N[C@@H](CCC(=O)O)C(=O)N[C@@H](CO)C(=O)N[C@@H](C)C(N)=O [Compound I]
- AUC(0-t) ([1]; 0.6 mg, Ex.2 DG2 weekly, wk 1, 0.6 mg sc): 2.02 µM·h
- AUC(0-t) ([1]; 0.6 mg, Ex.2 DG3 twice weekly, wk 3, 0.6 mg sc): 1.64 µM·h
- AUC(0-t) ([1]; 0.9 mg, Ex.2 DG1 weekly, wk 3, 0.9 mg sc): 3.62 µM·h
- AUC(0-t) ([1]; 0.9 mg, Ex.2 DG3 twice weekly, wk 5, 0.9 mg sc): 3.52 µM·h
- AUC(0-t) ([1]; 0.9 mg, Ex.2 DG3 twice weekly, wk 6, 0.9 mg sc): 3.83 µM·h
- AUC(0-t) ([1]; 1.2 mg, Ex.2 DG2 weekly, wk 3, 1.2 mg sc): 4.93 µM·h
- AUC(0-t) ([1]; 1.2 mg, Ex.2 DG3 twice weekly, wk 7, 1.2 mg sc): 4.69 µM·h
- AUC(0-t) ([1]; 1.5 mg, Ex.2 DG1 weekly, wk 5, 1.5 mg sc): 6.74 µM·h
- AUC(0-t) ([1]; 1.5 mg, Ex.2 DG3 twice weekly, wk 9, 1.5 mg sc): 6.72 µM·h
- AUC(0-t) ([1]; 1.8 mg, Ex.2 DG1 weekly, wk 6, 1.8 mg sc): 8.41 µM·h
- AUC(0-t) ([1]; 1.8 mg, Ex.2 DG1 weekly, wk 7, 1.8 mg sc): 9.01 µM·h
- AUC(0-t) ([1]; 1.8 mg, Ex.2 DG1 weekly, wk 9, 1.8 mg sc): 8.52 µM·h
- AUC(0-t) ([1]; 1.8 mg, Ex.2 DG1 weekly, wk 11, 1.8 mg sc): 8.83 µM·h
- AUC(0-t) ([1]; 1.8 mg, Ex.2 DG1 weekly, wk 13, 1.8 mg sc): 9.22 µM·h
- AUC(0-t) ([1]; 1.8 mg, Ex.2 DG1 weekly, wk 15, 1.8 mg sc): 9.5 µM·h
- AUC(0-t) ([1]; 1.8 mg, Ex.2 DG1 weekly, wk 16, 1.8 mg sc): 9.62 µM·h
- AUC(0-t) ([1]; 1.8 mg, Ex.2 DG2 weekly, wk 5, 1.8 mg sc): 6.64 µM·h
- AUC(0-t) ([1]; 1.8 mg, Ex.2 DG2 weekly, wk 6, 1.8 mg sc): 7.55 µM·h
- AUC(0-t) ([1]; 1.8 mg, Ex.2 DG3 twice weekly, wk 11, 1.8 mg sc): 8.21 µM·h
- AUC(0-t) ([1]; 2.1 mg, Ex.2 DG3 twice weekly, wk 13, 2.1 mg sc): 9.78 µM·h
- AUC(0-t) ([1]; 2.4 mg, Ex.2 DG2 weekly, wk 7, 2.4 mg sc): 9.83 µM·h
- AUC(0-t) ([1]; 2.4 mg, Ex.2 DG3 twice weekly, wk 15, 2.4 mg sc): 10.2 µM·h
- AUC(0-t) ([1]; 2.4 mg, Ex.2 DG3 twice weekly, wk 16, 2.4 mg sc): 11.2 µM·h
- AUC(0-t) ([1]; 3 mg, Ex.2 DG2 weekly, wk 9, 3.0 mg sc): 13.7 µM·h
- AUC(0-t) ([1]; 3.6 mg, Ex.2 DG2 weekly, wk 11, 3.6 mg sc): 16.4 µM·h
- AUC(0-t) ([1]; 4.2 mg, Ex.2 DG2 weekly, wk 13, 4.2 mg sc): 19.3 µM·h
- AUC(0-t) ([1]; 4.8 mg, Ex.2 DG2 weekly, wk 15, 4.8 mg sc): 22.9 µM·h
- deaths ([2]; Ex.3, whole trial): no deaths
- AEs of special interest, percentage of patients ([2]; in vivo): (0.3) interest %
- cases of pancreatitis ([2]; in vivo): no cases of pancreatitis
- clinical laboratory analyses ([3]; Ex.1 Part A): no treatment-emergent clinically relevant findings
- deaths ([3]; Ex.1 Part A): No patients died
- Patients withdrawn from up-titration ([3]; Compound I total): 27 (40.3) N (%)
- Patients withdrawn from up-titration ([3]; Weekly 1): 6 (35.3) N (%)
- Patients withdrawn from up-titration ([3]; Weekly 2): 8 (44.4) N (%)
- Patients withdrawn from up-titration ([3]; Weekly 3): 13 (76.5) N (%)
- Patients with AE leading to discontinuation of trial drug ([3]; Ex.1 Part A, Cmp I total): 5 (7.5) N (%)
- Patients with any AE ([3]; Ex.1 Part A, Cmp I total): 67 (100) N (%)
- Patients with investigator defined drug-related AE ([3]; Ex.1 Part A, Cmp I total): 67 (100) N (%)
- Patients with other significant AEs (ICH E3) ([3]; Ex.1 Part A, Cmp I total): 5 (7.5) N (%)
- Patients with serious AE ([3]; Ex.1 Part A, Cmp I total): 1 (1.5) N (%)
- Patients with severe AE ([3]; Ex.1 Part A, Cmp I total): 3 (4.5) N (%)
- Patients with AE leading to discontinuation of trial drug ([3]; Ex.1 Part A, Daily): 0 N (%)
- Patients with any AE ([3]; Ex.1 Part A, Daily): 15 (100) N (%)
- Patients with investigator defined drug-related AE ([3]; Ex.1 Part A, Daily): 15 (100) N (%)
- Patients with other significant AEs (ICH E3) ([3]; Ex.1 Part A, Daily): 0 N (%)
- Patients with serious AE ([3]; Ex.1 Part A, Daily): 0 N (%)
- Patients with severe AE ([3]; Ex.1 Part A, Daily): 0 N (%)
- drug-related abdominal distension, frequency ([3]; Ex.1 Part A, Daily): 13.3%
- drug-related cardiac disorders ([3]; Ex.1 Part A, Daily): No drug-related cardiac disorders were reported
- drug-related vomiting, frequency ([3]; Ex.1 Part A, Daily): no cases
- Patients with AE leading to discontinuation of trial drug ([3]; Ex.1 Part A, Weekly 1): 1 (5.9) N (%)
- Patients with any AE ([3]; Ex.1 Part A, Weekly 1): 17 (100) N (%)
- Patients with investigator defined drug-related AE ([3]; Ex.1 Part A, Weekly 1): 17 (100) N (%)
- Patients with other significant AEs (ICH E3) ([3]; Ex.1 Part A, Weekly 1): 1 (5.9) N (%)
- Patients with serious AE ([3]; Ex.1 Part A, Weekly 1): 0 N (%)
- Patients with severe AE ([3]; Ex.1 Part A, Weekly 1): 1 (5.9) N (%)
